Measurements published in patent publication US20170009093A1, “LIQUID COMPOSITION, PIGMENT DISPERSION LIQUID, AND INK JET RECORDING AQUEOUS INK COMPOSITION” (Seiko Epson Corporation, priority 2015, published 2017).

assay: water-octanol partition coefficient (log P), OECD Test Guideline 107; type: physicochemical; conditions: not given
Experimental: The water-octanol partition coefficient, or log P value, is a value defined by OECD Test Guideline 107. […] The constituents shown in Table 1 were as below, and the log P values in Table 1 were determined in accordance with OECD Test Guideline 107. • (1) First solvents

Row | log P (water-octanol partition coefficient) | Compound
1 | 0.56 | CCCCOCCOCCO [butyl diglycol]

same assay, conditions: OECD Test Guideline 107

Row | Compound | log P (water-octanol partition coefficient) | logP
2 | dipropylene glycol monomethyl ether | −0.46 | –
3 | COCCOCCOCCOCCO [Methyl tetraglycol, reference compound] | −1.87 | –
4 | CCC(O)CO (stereo not shown) [1,2-butanediol] | – | -0.34

same assay, conditions: octanol/water; OECD Test Guideline 107

Row | logP | Compound
5 | 0.88 | OCC(O)COCc1ccccc1 (stereo not shown) [3-benzyloxy-1,2-propanediol]
6 | 1.69 | OCC(CO)(CO)COc1ccccc1 [2-hydroxymethyl-2-phenoxymethyl-1,3-propanediol]
7 | 0.7 | CCCCC(O)CO (stereo not shown) [1,2-hexanediol]
8 | 1.1 | CC(O)(CO)COc1ccccc1 (stereo not shown) [2-methyl-3-phenoxy-1,2-propanediol]
9 | 0.8 | COc1ccc(COCC(O)CO)cc1 (stereo not shown) [3-(4-methoxybenzyloxy)-1,2-propanediol]
10 | 0.75 | OCC(O)COc1ccccc1 (stereo not shown) [phenyl glyceryl ether]
11 | 1.21 | Cc1cccc(OCC(O)CO)c1 (stereo not shown) [3-(3-methylphenoxy)-1,2-propanediol]
12 | 1 | CCCCCC(O)CO (stereo not shown) [1,2-heptanediol]
13 | -0.11 | CC(C)(C)C(O)CO (stereo not shown) [3,3-dimethylbutane-1,2-diol]
